Laboratory results from patent US20100234238A1, “METHOD FOR PROFILING KINASE INHIBITORS” (Janssen Pharmaceutica N V, priority 2006, published 2010).
pIC50: −log10 of the molar value.

Experiments:
[1] = tested on: 27 cell lines, representing diverse cancer cell types; assay: Inhibition of proliferation of cell lines in vitro (response status); format: cell-based; settings: response to MTKI
Experimental: (§1) It was tested whether the Pamchip peptide arrays are a useful tool to predict the response of a cell line to the multi-targeted kinase inhibitor, MTKI. MTKI inhibits the proliferation of a range of cell lines in vitro with widely varying IC50's. The lysates prepared from these 27 cell lines, representing diverse cancer cell types, were profiled on the peptide arrays in the absence or presence of 5 μM MTKI, in 6 replicates for each condition. In this panel, 13 cell lines were defined as responder cell lines (IC50<3 μM; cell lines are ordered according to increasing IC50 in Example 1, whereas 14 cell lines are classified as ‘non-responder’ cell lines (IC50>10 μM). Intermediary cell lines and cell lines with highly variable IC50 measurements were omitted from the analysis. The experiment included the highly responsive H3255 lung cancer cell line, which overexpresses mutant EGFR L858R. This mutant variant is highly responsive to MTKI, which is an ATP-competitive compound that binds to the active conformation of EGFR (similar to erlotinib and gefitinib). Accordingly, the most profound changes induced by MTKI in lysate kinase activity can be observed for this highly responsive cell line. To identify those peptides for which the inhibition of phosphorylation by MTKI correlates well with the response status of the cell line from which the lysate was prepared, a statistical mixed-model was set up to identify those peptides that are most likely to change after MTKI treatment in responder cell lysates compared to non-responder lysates, taken into account the inter-replicate variability (see the material and methods section for a more detailed description of the statistical test). […] To illustrate that the inhibition of the phosphorylation of these peptides in a given lysate does indeed correlate with the response of the corresponding cell line to MTKI, the following cut-off was chosen to classify responders and non-responders: minimally 4 peptides out of the 16 peptide list should be inhibited with a ratio of less than 0.8 (more than 20% inhibition) to classify as a responder. Applying this rule to all 27 cell lines indicates an overall classification accuracy of 82% (with 78% sensitivity, and 86% specificity). […] Note that the use of these […] peptides as a classification tool can be optimized according to the required sensitivity and specificity.

[2] = tested on: tyrosine kinase activity in cell line lysates; assay: Peptide array profiling of 9 cell line lysates in the presence of MTKI or Tarceva; format: biochemical; settings: 5 μM
Experimental: To test whether other EGFR inhibitors, related to MTKI, such as Tarceva (erlotinib; OSI pharmaceuticals), are also amenable to this response prediction methodology, 9 cell lines were profiled in the presence of MTKI, or Tarceva (5 μM in both cases). […] The value of the previously derived MTKI prediction peptides is illustrated in Tables 6A to C. Based on these peptides also response to Tarceva can be predicted with identical accuracy as for MTKI (and with the same false predictions, in casu H2009 and MOLT4).

[3] = tested on: 27 cell lines, representing diverse cancer cell types; assay: Inhibition of proliferation of cell lines in vitro (response status); format: cell-based; set-up: key: R = Responder to MTKI; NR = Non-Responder to MTKI; settings: MTKI
Experimental: as §1

xenograft tumors [4] = assay: Response of subcutaneous xenograft tumors to MTKI in vivo; set-up: species or system nude immuno-compromised mice; key: R = Responder to MTKI; NR = Non-Responder to MTKI
Experimental: (§2) To explore whether a similar approach allows for the classification of responder and non-responder tumors, the same strategy as above was applied to 12 different xenograft tumors, which were subcutaneously grown in nude immuno-compromised mice from human cancer cell lines. […] Lysates were made from homogenized frozen tumor blocks and analyzed in the absence or presence of 5 μM MTKI, as before.

xenograft tumors [5] = assay: as above; set-up: species or system nude immuno-compromised mice; settings: for response status: response to MTKI in vivo
Experimental: as §2

## COc1cc2ncnc3c2cc1OCCCCCN(C)Cc1ccc(Br)cc1N3 [MTKI, 4,6-ethanediylidenepyrimido[4,5-b][6,1,12]benzoxadiazacyclopentadecine, 17-bromo-8,9,10,11,12,13,14,19-octahydro-20-methoxy-13-methyl-]
[1]; BT474OD cell line
  pIC50: > 5.52
[1]; COLO 699, Colo699 cell line
  pIC50: > 5.52
[1]; HEK239, HEK239 cell line
  pIC50: < 5.00
[1]; HT1373 cell line
  pIC50: < 5.00
[1]; Homo sapiens, A-431, A431 cell line
  pIC50: > 5.52
[1]; Homo sapiens, DU-145, DU145 cell line
  pIC50: > 5.52
[1]; Homo sapiens, GTL 16, GTL16 cell line
  pIC50: < 5.00
[1]; Homo sapiens, MCF7, MCF7 cell line
  pIC50: < 5.00
[1]; Homo sapiens, MDA-MB-435S, MDAMB435s cell line
  pIC50: < 5.00
[1]; Homo sapiens, MKN-45, MKN45 cell line
  pIC50: < 5.00
[1]; Homo sapiens, MOLT-4, MOLT4 cell line
  pIC50: < 5.00
[1]; Homo sapiens, NCI-H23, H23 cell line
  pIC50: < 5.00
[1]; Homo sapiens, NCI-H1650, H1650 cell line
  pIC50: < 5.00
[1]; Homo sapiens, NCI-H2009, H2009 cell line
  pIC50: > 5.52
[1]; Homo sapiens, NCI-H2122, H2122 cell line
  pIC50: > 5.52
[1]; Homo sapiens, NCI-H3255, H3255 cell line
  pIC50: > 5.52
[1]; Homo sapiens, NCI-N87, NCI-N87 cell line
  pIC50: > 5.52
[1]; Homo sapiens, SH-SY5Y, SHSY5Y cell line
  pIC50: < 5.00
[1]; Homo sapiens, SK-BR-3, SKBR3 cell line
  pIC50: > 5.52
[1]; Homo sapiens, SNU-5, SNU5 cell line
  pIC50: < 5.00
[1]; Homo sapiens, U-118-MG, U118MG cell line
  pIC50: < 5.00
[1]; MDA231PAR cell line
  pIC50: < 5.00
[1]; NCI-H322, H322 cell line
  pIC50: > 5.52
[1]; RSJSA1 cell line
  pIC50: < 5.00
[1]; SNU-484, SNU484 cell line
  pIC50: > 5.52
[1]; SUM149, SUM149 cell line
  pIC50: > 5.52
[1]; SUM159, SUM159 cell line
  pIC50: > 5.52
[2]; H3255 lysate
  potency in lysate inhibition profile compared to Tarceva: slightly more potent
[2]; N87 lysate
  potency in lysate inhibition profile compared to Tarceva: more potent
[3]; A431 cell line
  response status: R
[3]; DU145 cell line
  response status: R
[3]; H2009 cell line
  response status: R
[3]; H3255 cell line
  response status: R
[3]; N87 cell line
  response status: R
[3]; SKBR3 cell line
  response status: R
[3]; SUM149 cell line
  response status: R
Xenograft tumors [4]; A431 xenograft tumor
  response status: R
Xenograft tumors [4]; BT474 xenograft tumor
  response status: R
Xenograft tumors [4]; DU145 xenograft tumor
  response status: R
Xenograft tumors [4]; H322 xenograft tumor
  response status: R
Xenograft tumors [4]; H3255 xenograft tumor
  response status: R
Xenograft tumors [4]; SUM149 xenograft tumor
  response status: R
Xenograft tumors [5]; A431 xenograft tumor
  response status: R
Xenograft tumors [5]; BT474 xenograft tumor
  response status: R
Xenograft tumors [5]; DU145, SUM149 and BT474 tumors
  responsiveness of xenograft tumors in vivo: potent inhibition of tumor growth
Xenograft tumors [5]; DU145 xenograft tumor
  response status: R
Xenograft tumors [5]; H322 xenograft tumor
  response status: R
Xenograft tumors [5]; H460 and H441, HT29, PC3, SKOV3, H1703 tumors
  responsiveness of xenograft tumors in vivo: non-responsive
Xenograft tumors [5]; H3255, A431 and H322 tumors
  responsiveness of xenograft tumors in vivo: abrupt tumor regression
Xenograft tumors [5]; H3255 xenograft tumor
  response status: R
Xenograft tumors [5]; SUM149 xenograft tumor
  response status: R
